Measurements taken from patent publication US10253012B2, “Method and apparatus for preparation of lactide using lactide purification process” (priority 2015, dated 2019).

Experiment: Solubility of lactide in different solvents
Assay type: physicochemical

Structure (SMILES): CC1OC(=O)C(C)OC1=O (centres unmarked) [lactide]
- solubility of lactide in ethanol (ethanol as first solvent, temperature maintained at 20 °C): ≤ 10 wt %
- solubility of lactide in γ-butyrolactone (in words) (solvent γ-butyrolactone, no solid crystal formed in condenser at 5 °C): high solubility
